Assay results reported in paper PMC11312813, “An Optimized Peptide Antagonist of CXCR4 Limits Survival of BCR–ABL1-Transformed Cells in Philadelphia-Chromosome-Positive B-Cell Acute Lymphoblastic Leukemia” (International Journal of Molecular Sciences, 2024).
Counter-ions that a name gives are not always drawn.

Columns and labels:
[1] = tested on: TKO-EV cells (untransformed mouse BM pro-B cells); assay: Real-time cell growth analysis by IncuCyte, untransformed TKO-EV cells; settings: 1 µM, 96 h; n = 3
Description: A flat-bottom 96-well plate was coated with 0.01% poly-L ornithine (#P4957, Sigma-Aldrich, Hamburg, Germany) for 1 h at room temperature (RT). BCR–ABL1, SupB15, and 697 cells were counted as 0.5 × 10^5 cells/well, while TKO-BCR–ABL1 and TKO-EV cells as 1 × 10^5 cells/well, which were labeled with IncuCyte Cytotox Red dye (#4632, Sartorius, Ulm, Germany) as per the manufacturer’s protocol. The cells were plated in 100 μL complete medium. […] Plate was prewarmed at 37 °C for 30 min prior to placing in the IncuCyte chamber. Scanning was conducted every two hours for total of 4 days. Images were acquired using a 20X objective in phase contrast and fluorescence mode at 4 images/well and analyzed using the cell-by-cell analysis module of IncuCyte software version 2020B (Essen Bioscience, Ann Arbor, MI, USA).

[2] = tested on: 697 cells; assay: Real-time cell growth by IncuCyte, 697; format: cell-based, human; settings: 1 µM, 96 h; n = 3
Description: (§1) The cells were plated in 100 μL complete medium.

[3] = tested on: SupB15 cells; assay: Real-time cell growth by IncuCyte, SupB15; format: cell-based, human; settings: 1 µM, 96 h; n = 3
Description: as §1

[4] = tested on: CXCR4; settings: ref [14],[17]; cited from earlier work
[5] = tested on: BCR–ABL1-transformed mouse B cells; assay: Real-time cell growth analysis by IncuCyte (GFP+ cell enrichment); format: cell-based; settings: 1, 5 and 10 µM, over 96 h; n = 4–5
Description: A flat-bottom 96-well plate was coated with 0.01% poly-L ornithine (#P4957, Sigma-Aldrich, Hamburg, Germany) for 1 h at room temperature (RT). […] The cells were plated in 100 μL complete medium. […] Plate was prewarmed at 37 °C for 30 min prior to placing in the IncuCyte chamber. Scanning was conducted every two hours for total of 4 days.

Molecule | CXCL12-induced calcium signaling [4] | also measured
Cc1ccc(NC(=O)c2ccc(CN3CCN(C)CC3)cc2)cc1Nc1nccc(-c2cccnc2)n1 [Imatinib, Imatinib mesylate, reference compound] | – | Survival/growth of TKO-EV cells [1]: no effect on the TKO-EV cells; 697 cell growth vs DMSO [2]: no effect on the 697 cells; SupB15 cell growth vs DMSO [3]: significantly reduced SupB15 cell growth
ILRWSRK * (Glu-Pal)-NH2 [JM#192, fatty-acid-conjugated optimized EPI-X4 derivative] | block CXCL12-induced calcium signaling | –
ILRWSRK * (Glu-Pal)LPCVS [JM#143, fatty-acid-conjugated optimized EPI-X4 derivative] | block CXCL12-induced calcium signaling | –
ILRWSRKLPCVS [JM#21] | block CXCL12-induced calcium signaling | –
IVRWSKK * (Pal)VPCVS [JM#169, fatty-acid-conjugated optimized EPI-X4 derivative] | block CXCL12-induced calcium signaling | GFP enrichment (BCR–ABL1 cell growth) vs DMSO [5]: significant reduction in cell growth only after 72 h
IVRWSKKVPCVS [WSC02, optimized 12-mer EPI-X4 derivative] | block CXCL12-induced calcium signaling | –
